Assay results published in patent publication US10202395B2, “Macrocycle with repeating triazole-carbazole units” (INDIANA UNIVERSITY RESEARCH & TECHNOLOGY CORPORATION, priority 2015, dated 2019).
Several values for one entry are separate records, joined by “and”; a condition that tells them apart may be missing. Equal values may be shown once.

Assays:
[1] = Anion binding constants by UV-Vis titration, FeCl4^−; conditions: 20% MeOH/CHCl3; for K2/K1: FeCl4^−, positive cooperativity
Description: (§1) FIG. 2B depicts an exemplary plot of anion binding constants obtained from equilibrium restricted factor analysis (D. A. Griend, D. K. Bediako, M. J. DeVries, N. A. DeJong, L. P. Heeringa, Inorg Chem 2008, 47, 656-662) of UV-Vis titration data (20% MeOH/CHCl3). Salts added as TBA^+ with exception of FeCl4^− added as the 1-ethyl-3-methylimidazolium salt.
(§2) The tricarb-anion stability constants were determined from UV-Vis titrations and evaluated using equilibrium restricted factor analysis (D. A. Griend, D. K. Bediako, M. J. DeVries, N. A. DeJong, L. P. Heeringa, Inorg Chem 2008, 47, 656-662) as implemented with Sivvu by employing the following equilibria: tricarb+X^− ? tricarb·X^−K1 (1) tricarb·X^−+tricarb ? tricarb2·X^−K2 (2) 2 tricarb+X^− ? tricarb2·X^−β2 (3)

[2] = Anion binding constants by UV-Vis titration, ClO4^−; conditions: 20% MeOH/CHCl3; for logβ2: 2:1 sandwich; for K2/K1: ClO4^−, positive cooperativity
Description: as §1, §2

[3] = Anion binding constants by UV-Vis titration, SbF6^−; conditions: 20% MeOH/CHCl3; for logβ2: 2:1 sandwich; for K2/K1: SbF6^−, positive cooperativity
Description: as §1, §2

[4] = Anion binding constants by UV-Vis titration, PF6^−; conditions: 20% MeOH/CHCl3; for logβ2: 2:1 sandwich; for K2/K1: PF6^−, positive cooperativity
Description: as §1, §2

[5] = Solution phase self-association, variable concentration UV-Vis, isodesmic equal-K model; format: physicochemical
Source text: Solution phase self-association was examined using variable concentration ^1H NMR and UV-Vis spectra. All aromatic ^1H NMR peaks shift upfield (FIG. 3B) with concentration (10×10^−6 M−2×10^−3 M) consistent with p stacking (R. B. Martin, Chem. Rev. 1996, 96, 3043-3064). UV-Vis spectroscopy was used to quantify the extent of self-association (S. A. Jenekhe, L. Lu, M. M. Alam, Macromolecules 2001, 34, 7315-7324) (0.7 to 24×10^−6 M, FIG. 3C). An isodesmic equal-K model (R. B. Martin, Chem. Rev. 1996, 96, 3043-3064) was used to quantify self-association (KE) to give KE=300,000±10,000 M^−1 in 20% MeOH/CHCl3 (ε=10.4). The self-association is high relative to other macrocycles (W. Zhang, J. S. Moore, Angew. Chem. Int. Ed. 2006, 45, 4416-4439) and believed to be driven by solvophobic effects and dipolar coupling. Consistent with dipolar coupling, use of pure CHCl3 with a lower polarity (ε=4.8), increases KE to 790,000±30,000 M^−1 (S.-L. Lee, Z. Yuan, L. Chen, K. S. Mali, K. Müllen, S. De Feyter, J Am. Chem. Soc. 2014, 136, 4117-4120; S.-L. Lee, Z. Yuan, L. Chen, K. S. Mali, K. Müllen, S. De Feyter, J. Am. Chem. Soc. 2014; P. Samori, N. Severin, C. D. Simpson, K. Müllen, J. P. Rabe, J. Am. Chem. Soc. 2002, 124, 9454-9457).

[6] = Anion binding constants by UV-Vis titration, I^−; conditions: 20% MeOH/CHCl3; for K2/K1: I^−, positive cooperativity
Description: as §1, §2

[7] = Anion binding constants by UV-Vis titration, ReO4^−; conditions: 20% MeOH/CHCl3; for K2/K1: ReO4^−, positive cooperativity
Description: as §1, §2

[8] = Cyclic voltammetry in solution; format: physicochemical; conditions: 1×10^−3 M, 0.1 M tetrabutylammonium hexafluorophosphate, glassy carbon working electrode, chloroform, room temperature
Source text: FIG. 7 depicts a representative current-voltage response curve recorded using cyclic voltammetry of tricarb of Formula (IB) in solution. […] Conditions: [tricarb of Formula (IB)]=1×10^−3 M, 0.1 M tetrabutylammonium hexafluorophosphate, glassy carbon working electrode, platinum counter electrode, chloroform, room temperature, Ar degassed.

[9] = FeCl4^− as 1-ethyl-3-methylimidazolium salt
[10] = listed as tricarb of Formula (I)
[11] = ClO4^− as tetrabutylammonium salt
[12] = SbF6^− as tetrabutylammonium salt
[13] = PF6^− as tetrabutylammonium salt
[14] = ReO4^− as tetrabutylammonium salt

CCCCCCCCCCn1c2ccc3cc2c2cc(ccc21)n1cc(nn1)c1ccc2c(c1)c1cc(ccc1n2CCCCCCCCCC)n1cc(nn1)c1ccc2c(c1)c1cc(ccc1n2CCCCCCCCCC)n1cc3nn1 [tricarb of Formula (IB), tridecyl-tricarbazolo-triazolophane]
logK1 [1, 9]: 4.0 ± 0.1
logK2 [1, 9]: 3.7 ± 0.2
logβ2 ([1]; FeCl4^− as 1-ethyl-3-methylimidazolium salt, 2:1 sandwich): 7.7 ± 0.3
K2/K1 ([1]; listed as tricarb): 5.2 ± 0.2
K2/K1 [1, 10]: ~5
logK1 [2, 11]: 4.04 ± 0.01
logK2 [2, 11]: 5.87 ± 0.01
logβ2 ([2]; ClO4^− as tetrabutylammonium salt, listed as Tricarb of Formula (IB)): 10
logβ2 ([2]; ClO4^− as tetrabutylammonium salt, listed as tricarb): 10.04 ± 0.02
K2/K1 ([2]; listed as tricarb): 67 ± 3
K2/K1 [2, 10]: ~70
logK1 [3, 12]: 5.2 ± 0.2
logK2 [3, 12]: 6.4 ± 0.2
logβ2 ([3]; SbF6^− as tetrabutylammonium salt, listed as Tricarb of Formula (IB)): 11.6
logβ2 ([3]; SbF6^− as tetrabutylammonium salt, listed as tricarb): 11.6 ± 0.4
K2/K1 ([3]; listed as tricarb): 30 ± 20
K2/K1 [3, 10]: ~30
logK1 [4, 13]: 4.46 ± 0.01
logK2 [4, 13]: 6.94 ± 0.01
logβ2 ([4]; PF6^− as tetrabutylammonium salt, listed as Tricarb of Formula (IB)): 11.4
logβ2 ([4]; PF6^− as tetrabutylammonium salt, listed as tricarb): 11.40 ± 0.02
K2/K1 ([4]; listed as tricarb): 300 ± 60
K2/K1 [4, 10]: 300
self-association (KE) ([5]; 20% MeOH/CHCl3 (ε=10.4), 0.7 to 24×10^−6 M): 300,000±10,000 M^−1
self-association (KE) ([5]; pure CHCl3 (ε=4.8)): 790,000±30,000 M^−1
logβ2 ([6]; I^− as tetrabutylammonium salt, 2:1 sandwich): 9.3 ± 0.3
logK1 ([6]; I^− as tetrabutylammonium salt, tricarb+X^− = tricarb·X^−): 4.3 ± 0.1
logK2 ([6]; I^− as tetrabutylammonium salt, tricarb·X^−+tricarb = tricarb2·X^−): 5.1 ± 0.2
K2/K1 ([6]; listed as tricarb): 6 ± 3
K2/K1 [6, 10]: ~5
logK1 [7, 14]: 3.8 ± 0.1
logK2 [7, 14]: 6.2 ± 0.1
logβ2 ([7]; ReO4^− as tetrabutylammonium salt, 2:1 sandwich): 10.0 ± 0.2
K2/K1 ([7]; listed as tricarb): 200 ± 100
K2/K1 [7, 10]: 200
half-wave oxidation potential E1/2 [8]: 0.8 V vs Ag/AgCl
peak potentials [8]: 0.95 V and 0.65 V
